Target: T1, human CRTH2 (Homo sapiens, UniProt Q9Y5Y4)
T1 construct: expressed in transfected cells
T1 sequence (Q9Y5Y4 1-395): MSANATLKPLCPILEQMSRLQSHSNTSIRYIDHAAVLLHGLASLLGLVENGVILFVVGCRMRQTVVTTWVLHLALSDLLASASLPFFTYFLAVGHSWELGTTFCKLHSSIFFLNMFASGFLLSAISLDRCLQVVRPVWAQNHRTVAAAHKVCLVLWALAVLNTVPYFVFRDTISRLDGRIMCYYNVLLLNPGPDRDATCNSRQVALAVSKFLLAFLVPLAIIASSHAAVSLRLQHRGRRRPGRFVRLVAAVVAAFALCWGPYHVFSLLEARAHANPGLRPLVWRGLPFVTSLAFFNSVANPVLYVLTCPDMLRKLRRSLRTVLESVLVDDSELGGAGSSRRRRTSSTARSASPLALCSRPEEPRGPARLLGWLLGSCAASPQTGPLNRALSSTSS
Experiment: Human CRTH2 Receptor Binding Assay (whole cell, [3H]ramatroban competition)
Details: CHO-K1 cells expressing human CRTH2 and G-alpha16; 20 nM [3H]ramatroban; 1 hour, room temperature
Text: A whole cell receptor binding assay using [^3H]ramatroban as the competing radioactive ligand was employed to evaluate the compound binding activity to human CRTH2. The radioactive ligand [^3H]ramatroban was synthesized according to Sugimoto et. al. (Eur. J. Pharmacol. 524, 30-37, 2005) to a specific activity of 42 Ci/mmol.
A cell line stably expressing human CRTH2 was established by transfecting CHO-K1 cells with two mammalian expression vectors that harbored human CRTH2 and G-alpha16 cDNAs, respectively, using FuGene® 6 transfection reagent (from Roche). Stable clones expressing CRTH2 were selected by staining each clone with BM16 (BD Pharmingen™ from BD Biosciences, a division of Becton, Dickinson and Company), which is a rat monoclonal antibody to human CRTH2. The cells were maintained as monolayer cultures in Ham's F-12 medium containing 10% fetal bovine serum, 100 units/mL penicillin, 100 μg/mL streptomycin, 2 mM glutamine, 0.5 mg/mL G418 (geneticin) for CRTH2, and 0.2 mg/mL hygromycin-B (for G-alpha 16). For whole cell receptor binding assay, the monolayer cells were rinsed once with PBS (phosphate buffered saline), dissociated using ethylenediaminetetraacetate (Versene™ EDTA Lonza Inc.), and suspended in PBS containing 10 mM MgCl2 and 0.06% BSA (bovine serum albumin) at 1.5×10^6 cells/mL.
The binding reactions (0.2 mL) were performed in 96-well plates at room temperature in PBS containing 1.5×10^5 cells, 10 mM MgCl2, 0.06% BSA, 20 nM [^3H]ramatroban, and test compound at various concentrations. After 1 hour of binding reactions, the cells were harvested on GF™/B filter microplates (microtiter plates with embedded glass fiber from PerkinElmer, Inc.) and washed 5 times with PBS using a Filtermate™ Harvester (a cell harvester that harvests and washes cells from microplates from PerkinElmer, Inc.). The radioactivities bound to the cells were determined using a microplate scintillation counter (TopCount® NXT, from PerkinElmer, Inc.) after adding 50 μL of Microscint™ 20 scintillation fluid (from PerkinElmer, Inc.) to each well of the filter plates. The radioactivity from non-specific binding was determined by replacing compound with 10 μM of 15(R)-15-methyl PGD2 (from Cayman Chemical Company) in the reaction mixtures. The radioactivity bound to the cells in the absence of compound (total binding) was determined by replacing compound with 0.25% of DMSO (dimethyl sulfoxide) in the reaction mixture. Specific binding data were obtained by subtracting the radioactivity of non-specific binding from each binding data.
The IC50 value is defined as the concentration of the tested compound that is required for 50% inhibition of total specific binding. In order to calculate the IC50 value, the percent inhibition data were determined for 7 concentrations for each compound. The percent inhibition for a compound at each concentration was calculated according to the following formula, [1-(specific binding in the presence of compound)/(total specific binding)]x100. The IC50 value was then obtained by fitting the percent inhibition data to a sigmoidal dose-response (4 parameter logistic) model in the XLfit® software Excel add-in program [from ID Business Solutions Ltd., model 205, where F(x)=(A+(B−A)/(1+((C/x)^D)))].

Row | IC50 [nM] | SMILES
1 | 18.2 | O=C(O)CCn1ncc2c1CCC[C@H]2NS(=O)(=O)c1cnc(Oc2ccccc2Cl)c(Br)c1 [Example 2-11a, 3-{(R)-4-[5-Bromo-6-(2-chloro-phenoxy)-pyridine-3-sulfonylamino]-4,5,6,7-tetrahydro-indazol-1-yl}-propionic acid]
2 | 4 | CN([C@@H]1CCCc2c1cnn2CC(=O)O)S(=O)(=O)c1cnc(Oc2ccc(Cl)cc2)c(Br)c1 [Example 6-1a, ((R)-4-{[5-Bromo-6-(4-chloro-phenoxy)-pyridine-3-sulfonyl]-methyl-amino}-4,5,6,7-tetrahydro-indazol-1-yl)-acetic acid]
3 | 24.2 | CN([C@@H]1CCCc2c1cnn2CC(=O)O)S(=O)(=O)c1ccc(Oc2cc(F)ccc2F)c(Cl)c1 [Example 9-22a, ((R)-4-{[3-Chloro-4-(2,5-difluoro-phenoxy)-benzenesulfonyl]-methyl-amino}-4,5,6,7-tetrahydro-indazol-1-yl)-acetic acid]
4 | 11.8 | CN([C@@H]1CCCc2c1cnn2CC(=O)O)S(=O)(=O)c1ccc(Oc2ccc(OC(F)(F)F)cc2)c(Cl)c1 [Example 9-28a, ((R)-4-{[3-Chloro-4-(4-trifluoromethoxy-phenoxy)-benzenesulfonyl]-methyl-amino}-4,5,6,7-tetrahydro-indazol-1-yl)-acetic acid]
5 | 80.7 | CN([C@@H]1CCCc2c1cnn2CCC(=O)O)S(=O)(=O)c1ccc(-c2cccc(C(F)(F)F)c2)cc1 [Example 11-2a, 3-{(R)-4-[Methyl-(3′-trifluoromethyl-biphenyl-4-sulfonyl)-amino]-4,5,6,7-tetrahydro-indazol-1-yl}-propionic acid]
6 | 321 | N#Cc1cccc(-c2ccc(S(=O)(=O)NC3CCCc4c3cnn4CC(=O)O)cc2)c1 (stereo not drawn) [Example 10-11a, [4-(3′-Cyano-biphenyl-4-sulfonylamino)-4,5,6,7-tetrahydro-indazol-1-yl]-acetic acid]
7 | 7.8 | Cc1ccc(S(=O)(=O)c2cc(C(F)(F)F)cc(S(=O)(=O)N(C)[C@@H]3CCCc4c3cnn4CCC(=O)O)c2)cc1 [Example 13-6a, 3-((R)-4-{Methyl-[3-(toluene-4-sulfonyl)-5-trifluoromethyl-benzenesulfonyl]-amino}-4,5,6,7-tetrahydro-indazol-1-yl)-propionic acid]
8 | 27.5 | C[S+]([O-])c1cccc(-c2ccc(S(=O)(=O)N[C@@H]3CCCc4c3cnn4CC(=O)O)cc2)c1 (stereo partly drawn) [Example 10-29a, [(R)-4-(3′-Methanesulfinyl-biphenyl-4-sulfonylamino)-4,5,6,7-tetrahydro-indazol-1-yl]-acetic acid]
9 | 267 | O=C(O)Cn1ncc2c1CCCC2NS(=O)(=O)c1ccc(-c2cccc(O)c2)cc1 (stereo not drawn) [Example 10-19a, [4-(3′-Hydroxy-biphenyl-4-sulfonylamino)-4,5,6,7-tetrahydro-indazol-1-yl]-acetic acid]
10 | 8.2 | CN([C@@H]1CCCc2c1cnn2CC(=O)O)S(=O)(=O)c1ccc(Oc2ccc(Cl)cc2)c(C(F)(F)F)c1 [Example 9-5a, ((R)-4-{[4-(4-Chloro-phenoxy)-3-trifluoromethyl-benzenesulfonyl]-methyl-amino}-4,5,6,7-tetrahydro-indazol-1-yl)-acetic acid]
11 | 311 | O=C(O)Cn1ncc2c1CCCC2NS(=O)(=O)c1cccc(-c2ccccc2Cl)c1 (stereo not drawn) [Example 10-12a, [4-(2′-Chloro-biphenyl-3-sulfonylamino)-4,5,6,7-tetrahydro-indazol-1-yl]-acetic acid]
12 | 12.1 | CC(C)c1cc(S(=O)(=O)N(C)[C@@H]2CCCc3c2cnn3CC(=O)O)cnc1Oc1ccc(Cl)cc1 [Example 7-1a, ((R)-4-{[6-(4-Chloro-phenoxy)-5-isopropyl-pyridine-3-sulfonyl]-methyl-amino}-4,5,6,7-tetrahydro-indazol-1-yl)-acetic acid]
13 | 23.7 | Cc1ccccc1Oc1ccc(S(=O)(=O)N(C)[C@@H]2CCCc3c2cnn3CC(=O)O)cc1Cl [Example 9-26a, {(R)-4-[(3-Chloro-4-o-tolyloxy-benzenesulfonyl)-methyl-amino]-4,5,6,7-tetrahydro-indazol-1-yl}-acetic acid]
14 | 53 | O=C(O)CCn1ncc2c1CCC[C@H]2NS(=O)(=O)c1ccc(Oc2ccccc2Cl)c(Cl)c1 [Example 5-7a, 3-{(R)-4-[3-Chloro-4-(2-chloro-phenoxy)-benzenesulfonylamino]-4,5,6,7-tetrahydro-indazol-1-yl}-propionic acid]
15 | 8.4 | O=C(O)Cn1ncc2c1CCC[C@H]2NS(=O)(=O)c1cnc(Oc2ccccc2Cl)c(Br)c1 [Example 2-9a, {(R)-4-[5-Bromo-6-(2-chloro-phenoxy)-pyridine-3-sulfonylamino]-4,5,6,7-tetrahydro-indazol-1-yl}-acetic acid]
16 | 12.2 | CN([C@@H]1CCCc2c1cnn2CC(=O)O)S(=O)(=O)c1ccc(Oc2cccc(Cl)c2)c(Cl)c1 [Example 9-2a, ((R)-4-{[3-Chloro-4-(3-chloro-phenoxy)-benzenesulfonyl]-methyl-amino}-4,5,6,7-tetrahydro-indazol-1-yl)-acetic acid]
17 | 238 | O=C(O)Cn1ncc2c1CCCC2NS(=O)(=O)c1ccc(-c2cccc([N+](=O)[O-])c2)cc1 (stereo not drawn) [Example 10-23a, [4-(3′-Nitro-biphenyl-4-sulfonylamino)-4,5,6,7-tetrahydro-indazol-1-yl]-acetic acid]
18 | 60.6 | O=C(O)Cn1ncc2c1CCCC2NS(=O)(=O)c1ccc(Oc2ccc(Cl)cc2)cc1 (stereo not drawn) [Example 5-3a, {4-[4-(4-Chloro-phenoxy)-benzenesulfonylamino]-4,5,6,7-tetrahydro-indazol-1-yl}-acetic acid]
19 | 2.7 | Cc1ccc(S(=O)(=O)c2cc(C(F)(F)F)cc(S(=O)(=O)N(C)[C@@H]3CCCc4c3cnn4CC(=O)O)c2)cc1 [Example 13-2a, ((R)-4-{Methyl-[3-(toluene-4-sulfonyl)-5-trifluoromethyl-benzenesulfonyl]-amino}-4,5,6,7-tetrahydro-indazol-1-yl)-acetic acid]
20 | 16.5 | CN([C@@H]1CCCc2c1cnn2CC(=O)O)S(=O)(=O)c1ccc(Oc2ccc(F)c(Cl)c2)c(Cl)c1 [Example 9-24a, ((R)-4-{[3-Chloro-4-(3-chloro-4-fluoro-phenoxy)-benzenesulfonyl]-methyl-amino}-4,5,6,7-tetrahydro-indazol-1-yl)-acetic acid]
21 | 7.5 | CN([C@@H]1CCCc2c1cnn2CC(=O)O)S(=O)(=O)c1ccc(Oc2ccc(F)cc2)c(C(F)(F)F)c1 [Example 9-41a, ((R)-4-{[4-(4-Fluoro-phenoxy)-3-trifluoromethyl-benzenesulfonyl]-methyl-amino}-4,5,6,7-tetrahydro-indazol-1-yl)-acetic acid]
22 | 19.4 | O=C(O)Cn1ncc2c1CCCC2NS(=O)(=O)c1cnc(Oc2cccc(Cl)c2)c(Br)c1 (stereo not drawn) [Example 2-3a, {4-[5-Bromo-6-(3-chloro-phenoxy)-pyridine-3-sulfonylamino]-4,5,6,7-tetrahydro-indazol-1-yl}-acetic acid]
23 | 14.6 | O=C(O)Cn1ncc2c1CCC[C@H]2NS(=O)(=O)c1ccc(Oc2ccccc2Cl)c(Cl)c1 [Example 5-1a, {(R)-4-[3-Chloro-4-[2-chloro-phenoxy)-benzenesulfonylamino]-4,5,6,7-tetrahydro-indazol-1-yl}-acetic acid]
24 | 412 | O=C(O)Cn1ncc2c1CCCC2NS(=O)(=O)c1ccc(-c2ccccc2)c(F)c1 (stereo not drawn) [Example 10-8a, [4-(2-Fluoro-biphenyl-4-sulfonylamino)-4,5,6,7-tetrahydro-indazol-1-yl]-acetic acid]

From patent publication US8420675B2, “Aminotetrahydroindazoloacetic acids” (Hoffmann-La Roche Inc., priority 2008, dated 2013)
